From patent US20250170248A1, “SMARCA DEGRADERS AND USES THEREOF” (Kymera Therapeutics, Inc., priority 2021, published 2025)

Tests used:
Assay type in all cases: cell-based
[1] = target: T1, SMARCA2 (Homo sapiens, UniProt P51531); experiment: MSD SMARCA2 degradation in A549 cell line; conditions: for Dmax: A549, A549 cells; for Dmax / DC50: 24 h; for DC50 / SMARCA2 MSD A549 degradation 24 h: Average Dmax %: A549 cells; for DC50: read-out: SMARCA2 MSD A549 degradation 24 h: Average external-Abs DC50
T1 sequence (P51531 whole entry): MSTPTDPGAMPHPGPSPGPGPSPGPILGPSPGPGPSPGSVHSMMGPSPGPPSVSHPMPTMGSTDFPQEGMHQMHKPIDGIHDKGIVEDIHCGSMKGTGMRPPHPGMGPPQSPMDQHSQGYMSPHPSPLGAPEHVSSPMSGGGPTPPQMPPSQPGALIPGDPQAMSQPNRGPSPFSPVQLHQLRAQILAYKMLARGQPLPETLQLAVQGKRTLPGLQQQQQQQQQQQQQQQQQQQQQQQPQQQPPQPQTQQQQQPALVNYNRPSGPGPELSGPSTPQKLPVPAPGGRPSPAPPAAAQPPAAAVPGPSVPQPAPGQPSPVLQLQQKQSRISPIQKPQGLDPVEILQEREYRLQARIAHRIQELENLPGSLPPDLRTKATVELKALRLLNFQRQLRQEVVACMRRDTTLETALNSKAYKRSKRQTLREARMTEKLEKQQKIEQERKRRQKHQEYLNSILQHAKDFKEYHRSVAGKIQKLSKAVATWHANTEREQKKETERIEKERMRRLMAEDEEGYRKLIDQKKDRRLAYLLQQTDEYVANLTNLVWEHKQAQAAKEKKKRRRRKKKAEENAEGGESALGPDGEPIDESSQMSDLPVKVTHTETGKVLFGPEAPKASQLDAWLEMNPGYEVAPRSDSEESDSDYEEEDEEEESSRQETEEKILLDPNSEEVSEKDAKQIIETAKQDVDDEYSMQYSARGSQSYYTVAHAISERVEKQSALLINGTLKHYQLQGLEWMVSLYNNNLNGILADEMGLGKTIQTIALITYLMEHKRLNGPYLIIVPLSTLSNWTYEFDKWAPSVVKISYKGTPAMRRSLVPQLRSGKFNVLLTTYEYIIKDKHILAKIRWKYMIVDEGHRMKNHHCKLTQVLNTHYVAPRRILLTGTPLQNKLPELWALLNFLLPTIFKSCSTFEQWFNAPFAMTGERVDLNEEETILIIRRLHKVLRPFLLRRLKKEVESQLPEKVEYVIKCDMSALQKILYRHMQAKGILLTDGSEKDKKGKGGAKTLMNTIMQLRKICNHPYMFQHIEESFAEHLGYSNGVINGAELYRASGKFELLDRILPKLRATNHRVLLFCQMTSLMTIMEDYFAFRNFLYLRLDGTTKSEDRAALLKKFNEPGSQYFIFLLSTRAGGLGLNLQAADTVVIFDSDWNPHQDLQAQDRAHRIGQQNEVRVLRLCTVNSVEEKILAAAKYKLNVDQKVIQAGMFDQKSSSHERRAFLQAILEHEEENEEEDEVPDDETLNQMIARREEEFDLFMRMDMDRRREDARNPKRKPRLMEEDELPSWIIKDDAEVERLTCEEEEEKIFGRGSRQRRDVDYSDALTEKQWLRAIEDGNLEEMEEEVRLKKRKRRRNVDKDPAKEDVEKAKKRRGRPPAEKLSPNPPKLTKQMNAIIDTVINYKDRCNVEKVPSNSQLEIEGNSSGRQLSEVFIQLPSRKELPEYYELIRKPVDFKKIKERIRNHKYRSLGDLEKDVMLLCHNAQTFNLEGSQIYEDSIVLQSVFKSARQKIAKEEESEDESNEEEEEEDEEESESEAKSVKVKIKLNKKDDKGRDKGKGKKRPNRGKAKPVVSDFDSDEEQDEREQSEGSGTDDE
Description: Example 10. MSD SMARCA2 Degradation in A549 Cell Line
Cells were seeded into 96-well plates (A549 cells: 2×10^4 cells/well/100 ul media) and incubated overnight. The next day, 200 nL compound were added into the intermediate plate with Echo (Labcyte 550) from source plate containing a 3-fold serial dilution from top concentration of 1 mM. The culture medium was changed with 8 0ul of fresh medium and 80 μL of 2× compound solution was added into the well to make a final concentration of 1000 nM, 333.3 nM, 111.1 nM, 37.04 nM, 12.35 nM, 4.115 nM, 1.372 nM, 0.457 nM, 0.152 nM and 0 nM (DMSO). The wells were mixed and then incubated for 24 hours. The media was aspirated from the cultures and 60 ul pre-chilled PIPA lysis buffer (Boston BioProducts BP-115D) with protease/phosphatase inhibitor (Roche 05892791001/Roche 04906837001) was added into the well to lyze the cells for 20 minutes at 4° C. The MSD plate (L15XA) was coated with 40 uL cell lysate and incubated at 4° C. overnight. The next day, the plate was washed three times with TBST (CST #9997S), 150 ul/well. The MSD plates was blocked with 150 ul blocking buffer per well and shaked for 1 hr at RT, 600 rpm. The blocking buffer was 3% Blocker A (MSD, R93BA-4) in TBST. The MSD plate was washed three times with 150 uL/well of TBST and 25 ul/well of detection antibody (Rabbit anti-SMARCA2/BRM antibody, 100 μg/mL, ab223735) was added at final concentration of 1 μg/mL diluted in 1% Blocking buffer and shaken for 1 hour at RT, 600 rpm. The MSD plate was washed three times with 150 ul/well of TBST and 25 ul/well of SULFO-TAG anti-rabbit antibody (MSD, R32AB-1) was added at final concentration of 1 μg/ml diluted in 1% Blocking buffer and shaken for 1 hour at RT, 600 rpm. The MSD plate was washed three times with 150 uL/well of TBST and 150 ul/well of 2× MSD reading buffer diluted from 4× (MSD, R92TC-2) with water was added. Lastly, the MSD instrument was read.
The letter codes for SMARCA2 degradation potency (DC50) include: A (<10 nM), B (10-50 nM), C (>50-100 nM), and D (>100 nM). The letter codes for the percentage of SMARCA degradation after 24 hours (Dmax %) include: A (>90% degradation), B (>70-90% degradation), C (50-70% degradation), and D (<50% degradation).

[2] = target: T2, SMARCA4 (Homo sapiens, UniProt P51532); experiment: SMARCA4 Western blot degradation in MV4-11 cells; conditions: for Dmax: MV4-11, MV4-11 cells, read-out: SMARCA4 MSD MV411 degradation 24 h: average Dmax %; for Dmax / DC50: 24 h; for DC50 / SMARCA4 MSD MV411 degradation 24 h: average Dmax %: MV4-11 cells; for DC50: read-out: SMARCA4 MSD MV411 degradation 24 h: Mean external-Abs DC50
T2 construct: SMARCA2/SMARCA4 protein degradation selectivity in MV4-11 cells; endogenous in cells; host or cells: MV4-11
T2 sequence (P51532 whole entry): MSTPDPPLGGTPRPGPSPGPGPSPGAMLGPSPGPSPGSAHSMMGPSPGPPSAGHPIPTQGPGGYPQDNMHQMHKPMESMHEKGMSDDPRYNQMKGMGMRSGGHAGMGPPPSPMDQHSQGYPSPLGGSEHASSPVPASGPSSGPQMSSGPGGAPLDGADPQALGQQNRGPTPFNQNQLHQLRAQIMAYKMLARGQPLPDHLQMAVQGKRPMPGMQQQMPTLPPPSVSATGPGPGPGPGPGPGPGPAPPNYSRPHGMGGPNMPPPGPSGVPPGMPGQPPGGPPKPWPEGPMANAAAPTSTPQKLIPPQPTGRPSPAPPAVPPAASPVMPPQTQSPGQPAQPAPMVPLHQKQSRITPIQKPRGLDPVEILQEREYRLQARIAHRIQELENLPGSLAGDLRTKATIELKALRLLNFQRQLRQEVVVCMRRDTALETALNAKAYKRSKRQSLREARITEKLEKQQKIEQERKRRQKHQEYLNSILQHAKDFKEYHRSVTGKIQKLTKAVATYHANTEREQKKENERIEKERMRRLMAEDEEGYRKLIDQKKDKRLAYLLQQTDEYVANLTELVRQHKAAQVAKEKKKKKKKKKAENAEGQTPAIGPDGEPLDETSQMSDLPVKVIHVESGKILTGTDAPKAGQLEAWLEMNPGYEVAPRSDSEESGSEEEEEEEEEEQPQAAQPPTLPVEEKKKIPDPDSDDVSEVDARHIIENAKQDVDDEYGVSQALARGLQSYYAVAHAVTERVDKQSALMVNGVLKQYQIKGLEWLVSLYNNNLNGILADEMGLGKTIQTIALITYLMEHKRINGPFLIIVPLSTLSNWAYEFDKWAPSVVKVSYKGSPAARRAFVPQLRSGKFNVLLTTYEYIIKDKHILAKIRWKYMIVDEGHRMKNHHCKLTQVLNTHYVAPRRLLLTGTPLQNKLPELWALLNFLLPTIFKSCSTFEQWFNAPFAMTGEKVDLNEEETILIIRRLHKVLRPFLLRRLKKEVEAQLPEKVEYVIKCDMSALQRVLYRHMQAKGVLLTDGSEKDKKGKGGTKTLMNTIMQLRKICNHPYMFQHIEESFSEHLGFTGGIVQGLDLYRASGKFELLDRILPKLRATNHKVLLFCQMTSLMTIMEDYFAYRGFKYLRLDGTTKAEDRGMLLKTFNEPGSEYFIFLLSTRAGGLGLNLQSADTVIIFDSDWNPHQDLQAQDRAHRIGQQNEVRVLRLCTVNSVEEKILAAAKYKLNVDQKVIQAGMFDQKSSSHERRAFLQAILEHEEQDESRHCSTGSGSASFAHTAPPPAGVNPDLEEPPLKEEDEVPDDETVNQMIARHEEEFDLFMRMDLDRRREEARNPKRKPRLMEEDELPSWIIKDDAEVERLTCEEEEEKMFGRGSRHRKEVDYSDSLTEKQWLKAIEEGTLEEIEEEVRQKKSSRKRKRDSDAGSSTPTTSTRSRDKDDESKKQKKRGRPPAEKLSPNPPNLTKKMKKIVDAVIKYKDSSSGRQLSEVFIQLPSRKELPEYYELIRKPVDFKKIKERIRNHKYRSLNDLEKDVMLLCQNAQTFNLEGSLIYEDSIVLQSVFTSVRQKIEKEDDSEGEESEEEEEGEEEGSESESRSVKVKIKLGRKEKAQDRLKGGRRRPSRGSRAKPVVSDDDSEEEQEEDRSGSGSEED
In short: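 Fluorescent LI-COR imaging of Western blots quantified SMARCA2 and SMARCA4 protein remaining in MV4-11 cells after 24 h of compound treatment. β-actin was the loading control, and DC50, Dmax and SMARCA2/4 selectivity are given as letter-coded ranges.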

[3] = target: T1, SMARCA2; experiment: SMARCA2 Western blot degradation in MV4-11 cells; set-up: SMARCA2/SMARCA4 protein degradation selectivity in MV4-11 cells; endogenous in cells; host or cells: MV4-11; conditions: for Dmax: MV4-11, MV4-11 cells, read-out: SMARCA2 MSD MV411 degradation 24 h: average Dmax %; for Dmax / DC50 / SMARCA2 MSD MV411 degradation 24 h: average Dmax %: 24 h; for DC50 / Selectivity in MV411 / SMARCA2 MSD MV411 degradation 24 h: average Dmax %: MV4-11 cells; for DC50: read-out: SMARCA2 MSD MV411 degradation 24 h: Mean external-Abs DC50; for Selectivity in MV411: SMARCA2/4 selectivity

Row | Dmax [1] [%] | DC50 [1] [µM] | Dmax [2] [%] | DC50 [2] [µM] | Dmax [3] [%] | DC50 [3] [µM] | Selectivity in MV411 [3] | SMARCA2 MSD A549 degradation 24 h: Average Dmax % [1] | SMARCA4 MSD MV411 degradation 24 h: average Dmax % [2] | SMARCA2 MSD MV411 degradation 24 h: average Dmax % [3] | Compound
1 | > 90 | > 0.1 | < 50 | > 0.1 | 50 to 70 | 0.01 to 0.1 | C (C (10-100 fold)) | – | – | – | C#Cc1ccc(CNC(=O)[C@@H]2C[C@@H](O)CN2C(=O)[C@@H](NC(=O)N2CC3(CC(N4C[C@H]5CN(c6cnc(N7CCc8[nH]c9nnc(-c%10ccccc%10O)cc9c8[C@H]7C)nc6)C[C@H]5C4)C3)C2)C(C)(C)C)cc1 [I-171]
2 | – | > 0.1 | – | > 0.1 | – | > 0.1 | C (C (10-100 fold)) | D (D (<50% degradation)) | D (D (<50% degradation)) | D (D (<50% degradation)) | Cc1cc(Cl)ccc1C#CCNC(=O)[C@@H]1C[C@@H](O)CN1C(=O)[C@@H](NC(=O)[C@H]1CCC2(CC1)C[C@H](N1CCC(c3cnc(N4CCN5c6cc(-c7ccccc7O)nnc6NC[C@H]5C4)nc3)CC1)C2)C(C)(C)C (single isomer, unassigned) [I-126]
3 | > 90 | 0.05 to 0.1 | 70 to 90 | 0.01 to 0.1 | 70 to 90 | 0.001 to 0.01 | C (C (10-100 fold)) | – | – | – | C#Cc1ccc(CNC(=O)[C@@H]2C[C@@H](O)CN2C(=O)[C@@H](NC(=O)N2CC3(CC(N4CCC(N5CC6(CC(N7CCN8c9cc(-c%10ccccc%10O)nnc9NC[C@H]8C7)C6)C5)CC4)C3)C2)C(C)(C)C)cc1 [I-224]
4 | > 90 | 0.01 to 0.05 | > 90 | 0.01 to 0.1 | > 90 | < 0.001 | C (C (10-100 fold)) | – | – | – | C#Cc1ccc(CNC(=O)[C@@H]2C[C@@H](O)CN2C(=O)[C@@H](NC(=O)N2CC3(CC(N4CCC(c5cnc(N6CCc7[nH]c8nnc(-c9ccccc9O)cc8c7[C@H]6C)nc5)CC4)C3)C2)C(C)(C)C)c(OCCCC(=O)O)c1 [I-145]
5 | > 90 | 0.05 to 0.1 | 70 to 90 | > 0.1 | 70 to 90 | 0.001 to 0.01 | C (C (10-100 fold)) | – | – | – | C#Cc1ccc(CNC(=O)[C@@H]2C[C@@H](O)CN2C(=O)[C@@H](NC(=O)N2CC3(CC(N4CCN([C@H]5CC[C@@H](N6CCc7[nH]c8nnc(-c9ccccc9O)cc8c7[C@H]6C)CC5)CC4)C3)C2)C(C)(C)C)cc1 [I-187]
6 | – | 0.01 to 0.05 | – | 0.01 to 0.1 | – | < 0.001 | C (C (10-100 fold)) | A (A (>90% degradation)) | B (B (>70-90% degradation)) | A (A (>90% degradation)) | C[C@H](NC(=O)[C@@H]1C[C@@H](O)CN1C(=O)[C@@H](NC(=O)[C@H]1CCC2(CC1)C[C@H](N1CCC(c3cnc(N4CCN5c6cc(-c7ccccc7O)nnc6NC[C@H]5C4)nc3)CC1)C2)C(C)(C)C)c1ccc(-c2ccnn2C)cc1 (single isomer, unassigned) [I-22]
7 | > 90 | 0.05 to 0.1 | 70 to 90 | 0.01 to 0.1 | > 90 | 0.001 to 0.01 | D (D (<10 fold)) | – | – | – | C#Cc1ccc(CNC(=O)[C@@H]2C[C@@H](O)CN2C(=O)[C@@H](NC(=O)N2CC3(CC(N4CCC(c5cnc(N6CCc7[nH]c8nnc(-c9ccccc9O)cc8c7[C@@H]6CO)nc5)CC4)C3)C2)C(C)(C)C)cc1 [I-147]
8 | > 90 | < 0.01 | 50 to 70 | > 0.1 | 70 to 90 | 0.001 to 0.01 | A (A (>500 fold)) | – | – | – | C#Cc1ccc(CNC(=O)[C@@H]2C[C@@H](O)CN2C(=O)[C@@H](NC(=O)[C@H]2CCC3(CC2)C[C@H](N2CCN(c4cnc(N5CCN6c7cc(-c8ccccc8O)nnc7NC[C@H]6C5)nc4)CC2)C3)C(C)(C)CCO)cc1 (single isomer, unassigned) [I-287]
9 | > 90 | < 0.01 | > 90 | 0.01 to 0.1 | > 90 | 0.001 to 0.01 | C (C (10-100 fold)) | – | – | – | C#Cc1ccc(CNC(=O)[C@@H]2C[C@@H](O)CN2C(=O)[C@@H](NC(=O)c2ccc(N3CCC(N4CCC(N5CCN6c7cc(-c8ccccc8O)nnc7NC[C@H]6C5)CC4)CC3)cn2)C(C)(C)C)cc1 [I-292]
10 | > 90 | < 0.01 | > 90 | > 0.1 | > 90 | 0.001 to 0.01 | C (C (10-100 fold)) | – | – | – | C#Cc1ccc(CNC(=O)[C@@H]2C[C@@H](O)CN2C(=O)[C@@H](NC(=O)N2CC3(CC(N4CCC(c5cnc(N6CCc7[nH]c8nnc(-c9ccccc9O)cc8c7[C@H]6C)nc5)CC4)C3)C2)C(C)(C)C)c(C)c1 [I-270]
11 | 70 to 90 | > 0.1 | 70 to 90 | > 0.1 | 70 to 90 | 0.01 to 0.1 | D (D (<10 fold)) | – | – | – | C#CCOc1cc(C(C(=O)N2C[C@H](O)C[C@H]2C(=O)NCc2ccc(-c3scnc3C)cc2O[C@H]2CC[C@H](N3CCC(c4cnc(N5CCc6[nH]c7nnc(-c8ccccc8O)cc7c6[C@@H]5C)nc4)CC3)CC2)C(C)C)on1 (single isomer, unassigned) [I-40]
12 | – | 0.01 to 0.05 | – | 0.01 to 0.1 | – | 0.001 to 0.01 | C (C (10-100 fold)) | A (A (>90% degradation)) | B (B (>70-90% degradation)) | A (A (>90% degradation)) | Cc1ncsc1-c1ccc(CNC(=O)[C@@H]2C[C@@H](O)CN2C(=O)[C@@H](NC(=O)[C@H]2CC3(C2)C[C@H](N2CCN(c4cnc(N5CCN6c7cc(-c8ccccc8O)nnc7NC[C@H]6C5)nc4)CC2)C3)C(C)(C)C)cc1 (stereo partly drawn) [I-19]
13 | > 90 | > 0.1 | < 50 | > 0.1 | 70 to 90 | 0.01 to 0.1 | C (C (10-100 fold)) | – | – | – | C#Cc1ccc([C@H](C)NC(=O)[C@@H]2C[C@@H](O)CN2C(=O)[C@@H](NC(=O)N2CC3(CC(N4CCC(N5CCC(N6CCc7[nH]c8nnc(-c9ccccc9O)cc8c7[C@H]6C)CC5)CC4)C3)C2)C(C)(C)C)cc1 [I-212]
14 | > 90 | 0.01 to 0.05 | 50 to 70 | > 0.1 | 70 to 90 | 0.001 to 0.01 | B (B (>100-500 fold)) | – | – | – | C#Cc1ccc(CNC(=O)[C@@H]2C[C@@H](O)CN2C(=O)[C@@H](NC(=O)[C@H]2CC3(C2)C[C@H](N2CCC(N4CCC(N5CCN6c7cc(-c8ccccc8O)nnc7NC[C@H]6C5)CC4)CC2)C3)C(C)(C)C)cc1 (single isomer, unassigned) [I-113]
15 | – | > 0.1 | – | > 0.1 | – | 0.01 to 0.1 | C (C (10-100 fold)) | A (A (>90% degradation)) | D (D (<50% degradation)) | C (C (50-70% degradation)) | CC#Cc1ccc(CNC(=O)[C@@H]2C[C@@H](O)CN2C(=O)[C@@H](NC(=O)[C@H]2CCC3(CC2)C[C@H](N2CCC(c4cnc(N5CCN6c7cc(-c8ccccc8O)nnc7NC[C@H]6C5)nc4)CC2)C3)C(C)(C)C)cc1 (single isomer, unassigned) [I-117]
